Measurements reported in patent US6946547B2, “Ecstasy-class analogs and use of same in detection of ecstasy-class compounds” (Microgenics Corporation, priority 2000, dated 2005).
Marks after values point to notes of the source that are not given here.

Legend:
Antibody 1A9 = assay: CEDIA ecstasy-class assay on a Hitachi clinical chemistry analyzer; assay type: binding, mouse; conditions: for detection in the CEDIA ecstasy-class MDMA assay: in words
Description: Antibodies obtained using any of the aforementioned techniques are screened or purified not only for their ability to react with an ecstasy-class compound, but also for a low cross-reactivity with potential interfering substances. “Cross reactivity” is determined in a quantitative immunoassay by establishing a standard curve using known dilutions of the target analyte, e.g., MDMA. […] The cross-reactivity is the apparent concentration divided by the actual concentration multiplied by 100. […] Alternatively, the cross-reactivity can be determined in the same type of immunoassay in which the antibody will ultimately be used.
• a. Preparation of Reagents:
Enzyme Donor (ED) Reagent was prepared as a liquid reagent with the components below:
Assay Protocol: The assay was performed on a Hitachi clinical chemistry analyzer as follows: Sample was pipetted into a reaction cuvette. EA reagent, containing antibody, was added. The mixture was incubated at 37° C. for approximately 5 minutes. ED reagent containing […] was subsequently added, and the incubation continued for 4 minutes at 37° C. The rate of substrate hydrolysis was measured photometrically at 570 nm (with subtraction of background at 660 nm) from four to five minutes after ED addition.

[1] = Standard CEDIA DAU Amphetamines assay, Hitachi 911; conditions: methamphetamine = 100
[2] = system: 1A9 anti-ecstasy antibody; assay: Enhanced CEDIA DAU Amphetamines assay (1A9 antibody and ED28-(MB-MDA)2 added); conditions: methamphetamine = 100
[3] = Antibody 1A9, Experiment 2, concentration 600,000 ng/mL
[4] = antibody 1A9, summary of detected ecstasy-class compounds
[5] = Antibody 1A9, Experiment 1, concentration 300 ng/mL
[6] = Antibody 1A9, Experiment 1, concentration 1000 ng/mL
[7] = Antibody 1A9, Experiment 2, concentration 1,000,000 ng/mL
[8] = Antibody 1A9, Experiment 1, concentration 5000 ng/mL

| Molecule | Cross-Reactivity (Antibody 1A9; [3]) [%] | Cross-Reactivity (Antibody 1A9; [4]) [%] | Cross-reactivity, Standard CEDIA Amphetamines ([1]; concentration 300 ng/ml) | Cross-reactivity, Standard CEDIA Amphetamines ([1]; concentration 500 ng/ml) | Cross-reactivity, Enhanced CEDIA Amphetamines ([2]; concentration 300 ng/ml) | Cross-Reactivity (Antibody 1A9; [5]) | Cross-Reactivity (Antibody 1A9; [6]) | detection in the CEDIA ecstasy-class MDMA assay (Antibody 1A9; antibody 1A9) | Cross-reactivity, Enhanced CEDIA Amphetamines ([2]; concentration 500 ng/ml) | Cross-Reactivity (Antibody 1A9; [7]) [%] | Cross-Reactivity (Antibody 1A9; [8]) [%] |
| --- | --- | --- | --- | --- | --- | --- | --- | --- | --- | --- | --- |
| CN[C@@H](C)[C@@H](O)c1ccccc1 [pseudoephedrine] | 0.0017 | – | – | – | – | – | – | – | – | – | – |
| CNC(C)Cc1ccc2c(c1)OCO2 (centres unmarked) [MDMA, 3,4-methylenedioxymethamphetamine] | – | 100 | 49 | 50 | 129 | – | – | – | – | – | – |
| CCNC(C)Cc1ccc2c(c1)OCO2 (centres unmarked) [MDEA, N-ethyl-3,4-methylenedioxyamphetamine] | – | 155 | 22 | 21 | 153 | 155* % | 484% | – | – | – | – |
| CN[C@@H](C)Cc1ccccc1 [Methamphetamine] | 0.056 | – | 100 | 100 | 100 | – | – | detected neither | 100 | – | – |
| CC(N)C(O)c1ccccc1 (centres unmarked) [phenylpropanolamine] | – | – | – | – | – | – | – | – | – | 0.0041 | – |
| CC(N)Cc1ccc2c(c1)OCO2 (centres unmarked) [MDA, 3,4-methylenedioxyamphetamine] | – | 55 | 5 | 4 | 81 | 55% | 68* % | – | 91 | – | 63 |
| (±)ephedrine | – | – | – | – | – | – | – | – | – | 0.0047 | – |
| CCC(Cc1ccc2c(c1)OCO2)NC (centres unmarked) [MBDB, N-methyl-1-(3,4-methylenedioxyphenyl)-2-butanamine] | – | 23 | 64 | 73 | 80 | 23% | 29* % | – | 97 | – | 18 |
| CNC(C)Cc1ccc(O)c(OC)c1 (centres unmarked) [HMMA, 4-hydroxy-3-methoxymethamphetamine] | – | – | – | – | – | <0.1% | <0.1% | detected neither | – | – | <0.1 |
| CCC(N)Cc1ccc2c(c1)OCO2 (centres unmarked) [BDB, 1-(3,4-methylenedioxyphenyl)-2-butanamine] | – | 33 | 5 | 7 | 105 | 33% | 50* % | – | 125 | – | 30 |
